Measured values from patent US6610677B2, “Pyrazole compounds useful as protein kinase inhibitors” (Vertex Pharmaceuticals Incorporated, priority 2000, dated 2003).

Legend:
GSK-3β (AA 1-420) = biological target: T1, GSK-3β (AA 1-420) (Homo sapiens, UniProt P49841); assay: Ki determination for the inhibition of GSK-3 (coupled enzyme system); format: biochemical; conditions: 20 μM ATP, 300 μM peptide, 20 nM GSK-3β, 30° C
T1 construct: GSK-3β (AA 1-420)
Method in brief: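 Ki values come from reaction rates over 10 min at 30 °C as a function of inhibitor concentration (12-point titration, 0.002–30 μM, 10 min preincubation). GSK-3β (AA 1-420, 20 nM) phosphorylated 300 μM primed peptide with 20 μM ATP; ADP formation followed by coupled NADH oxidation, pH 7.5.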

Aurora-2 = biological target: T2, Aurora-2 (Homo sapiens, UniProt O14965); assay: Ki determination for the inhibition of Aurora-2 (coupled enzyme assay); format: biochemical; conditions: 70 nM Aurora-2, peptide LRRASLG, 30° C
T2 sequence (O14965 1-403): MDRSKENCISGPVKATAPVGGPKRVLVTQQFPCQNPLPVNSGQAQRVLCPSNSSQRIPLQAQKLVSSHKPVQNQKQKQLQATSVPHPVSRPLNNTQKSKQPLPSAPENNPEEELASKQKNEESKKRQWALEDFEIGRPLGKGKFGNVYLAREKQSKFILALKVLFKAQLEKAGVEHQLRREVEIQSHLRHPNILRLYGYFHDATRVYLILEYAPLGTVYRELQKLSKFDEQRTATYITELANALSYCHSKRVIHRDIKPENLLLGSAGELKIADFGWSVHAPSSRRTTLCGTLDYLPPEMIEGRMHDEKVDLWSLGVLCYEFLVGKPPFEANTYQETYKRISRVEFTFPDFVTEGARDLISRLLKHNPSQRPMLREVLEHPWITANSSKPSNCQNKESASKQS
Description: Compounds were screened in the following manner for their ability to inhibit Aurora-2 using a standard coupled enzyme assay (Fox et al (1998) Protein Sci 7, 2249).
To an assay stock buffer solution containing 0.1M HEPES 7.5, 10 mM MgCl2, 1 mM DTT, 25 mM NaCl, 2.5 mM phosphoenolpyruvate, […], 30 mg/ml pyruvate kinase, 10 mg/ml lactate dehydrogenase, […], and 800 μM peptide (LRRASLG, American Peptide, Sunnyvale, Calif.) was added a DMSO solution of a compound of the present invention to a final concentration of 30 μM. The resulting mixture was incubated at 30° C. for 10 min. The reaction was initiated by the addition of 10 μL of Aurora-2 stock solution to give a final concentration of 70 nM in the assay. The rates of reaction were obtained by monitoring absorbance at 340 nm over a 5 minute read time at 30° C. using a BioRad Ultramark plate reader (Hercules, Calif.). The Ki values were determined from the rate data as a function of inhibitor concentration.

T1 sequence (P49841 whole entry, the tested form may be a part): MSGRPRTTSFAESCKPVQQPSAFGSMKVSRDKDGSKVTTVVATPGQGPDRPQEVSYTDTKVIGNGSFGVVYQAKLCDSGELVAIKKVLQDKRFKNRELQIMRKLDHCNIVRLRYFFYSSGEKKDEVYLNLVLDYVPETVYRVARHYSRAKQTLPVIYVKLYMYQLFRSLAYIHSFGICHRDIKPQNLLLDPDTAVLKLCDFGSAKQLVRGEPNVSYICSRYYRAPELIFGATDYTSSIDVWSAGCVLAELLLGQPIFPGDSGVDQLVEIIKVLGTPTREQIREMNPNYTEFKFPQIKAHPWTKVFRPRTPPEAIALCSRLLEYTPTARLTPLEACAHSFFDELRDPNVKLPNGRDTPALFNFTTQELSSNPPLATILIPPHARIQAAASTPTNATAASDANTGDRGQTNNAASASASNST

| SMILES | Ki (GSK-3β (AA 1-420)) | Ki (Aurora-2) |
| --- | --- | --- |
| Cc1cc(Nc2nc(-c3ccncc3)nc3cc(Cl)ccc23)[nH]n1 [III-28, (7-Chloro-2-pyridin-4-yl-quinazolin-4-yl)-(5-methyl-2H-pyrazol-3-yl)-amine] | 100 to 1000 nM | 100 to 1000 nM |
| Fc1cc(F)c2[nH]nc(Nc3nc(-c4cccnc4Cl)nc4ccccc34)c2c1 [II-94, [2-(2-Chloro-pyridin-3-yl)-quinazolin-4-yl]-(5,7-Difluoro-1H-indazol-3-yl)-amine] | < 100 nM | 100 to 1000 nM |
| FC(F)(F)c1ccccc1-c1nc(Nc2cc[nH]n2)c2ccccc2n1 [II-53, (2H-Pyrazol-3-yl)-[2-(2-trifluoromethylphenyl)-quinazolin-4-yl]-amine] | < 100 nM | 100 to 1000 nM |
| Cc1cc(Nc2nc(C3CCCCC3)nc3ccccc23)[nH]n1 [III-30, (2-Cyclohexyl-quinazolin-4-yl)-(5-methyl-2H-pyrazol-3-yl)-amine] | < 100 nM | < 100 nM |
| FC(F)(F)c1ccccc1-c1nc(Nc2n[nH]c3ccccc23)cc(-c2ccccc2)n1 [II-20, (1H-Indazol-3-yl)-[6-phenyl-2-(2-trifluoromethyl-phenyl)-pyrimidin-4-yl]-amine] | < 100 nM | 100 to 1000 nM |
| Fc1ccc2[nH]nc(Nc3nc(-c4ccccc4C(F)(F)F)nc4c3CCC4)c2c1 [II-107, (5-Fluoro-1H-indazol-3-yl)-[2-(2-trifluoromethyl-phenyl)-6,7-dihydro-5H-cyclopentapyrimidin-4-yl]-amine] | < 100 nM | 1000 to 20000 nM |
| Cc1ccc2[nH]nc(Nc3nc(-c4ccccc4C(F)(F)F)nc4ccccc34)c2c1 [II-61, (5-Methyl-1H-indazol-3-yl)-[2-(2-trifluoromethyl-phenyl)-quinazolin-4-yl]-amine] | < 100 nM | 1000 to 20000 nM |
| Clc1ccccc1-c1nc(Nc2n[nH]c3ccccc23)c2ccccc2n1 [II-63, [2-(2-Chloro-phenyl)-quinazolin-4-yl]-(1H-indazol-3-yl)-amine] | < 100 nM | 1000 to 20000 nM |
| Cc1cc(Nc2nc(-c3cccc(CO)c3)nc3ccccc23)[nH]n1 [III-59, [2-(3-Hydroxymethylphenyl)-quinazolin-4-yl]-(5-methyl-2H-pyrazol-3-yl)-amine] | < 100 nM | < 100 nM |
| Cc1cc(Nc2nc(-c3ccccc3)nc3c2CCCC3)n[nH]1 [III-7, (5-Methyl-2H-pyrazol-3-yl)-(2-phenyl-5,6,7,8-tetrahydroquinazolin-4-yl)-amine] | < 100 nM | < 100 nM |
| Cc1cc(Nc2nc(-c3ccncc3)nc3ccccc23)n[nH]1 [III-9, (5-Methyl-2H-pyrazol-3-yl)-(2-pyridin-4-yl-quinazolin-4-yl)-amine] | < 100 nM | < 100 nM |
| Cc1cc(Nc2nc(-c3ccc(F)c(Cl)c3)nc3ccccc23)[nH]n1 [III-52, [2-(3-Chloro-4-fluorophenyl)-quinazolin-4-yl]-(5-methyl-2H-pyrazol-3-yl)-amine] | < 100 nM | < 100 nM |
| Cc1cc(Nc2nc(-c3ccccc3C(F)(F)F)nc3ccccc23)n[nH]1 [II-41, (5-Methyl-2H-pyrazol-3-yl)-[2-(2-trifluoromethylphenyl)-quinazolin-4-yl]-amine] | < 100 nM | < 100 nM |
| Cc1cc(Nc2nc(-c3ccc(F)cc3F)nc3ccccc23)n[nH]1 [II-34, [2-(2,4-Difluorophenyl)-quinazolin-4-yl]-(5-methyl-2H-pyrazol-3-yl)-amine] | < 100 nM | < 100 nM |
| CC(=O)c1ccccc1-c1nc(Nc2cc(C)[nH]n2)c2ccccc2n1 [II-39, [2-(2-Acetylphenyl)-quinazolin-4-yl]-(5-methyl-2H-pyrazol-3-yl)-amine] | < 100 nM | 100 to 1000 nM |
| FC(F)(F)c1ccccc1-c1nc(Nc2n[nH]c3ccccc23)c2ccccc2n1 [II-57, (1H-indazol-3-yl)-[2-(2-trifluoromethyl-phenyl)-quinazolin-4-yl]-amine] | < 100 nM | 1000 to 20000 nM |
